Measurements: US12491145B2, “Synthesis and purification of cannabigerol and its application” (SYMRISE AG, priority 2019, dated 2025)

What was measured:
[1] = target: T1, tyrosinase (Mus musculus, UniProt P11344); experiment: Measurement of tyrosinase activity in lysates of treated B16 cells (L-dopa, dopachrome formation, 475 nm); format: cell-based
T1 construct: host or cells: B16 mouse melanocytes (melanoma line)
T1 sequence (P11344 19-533): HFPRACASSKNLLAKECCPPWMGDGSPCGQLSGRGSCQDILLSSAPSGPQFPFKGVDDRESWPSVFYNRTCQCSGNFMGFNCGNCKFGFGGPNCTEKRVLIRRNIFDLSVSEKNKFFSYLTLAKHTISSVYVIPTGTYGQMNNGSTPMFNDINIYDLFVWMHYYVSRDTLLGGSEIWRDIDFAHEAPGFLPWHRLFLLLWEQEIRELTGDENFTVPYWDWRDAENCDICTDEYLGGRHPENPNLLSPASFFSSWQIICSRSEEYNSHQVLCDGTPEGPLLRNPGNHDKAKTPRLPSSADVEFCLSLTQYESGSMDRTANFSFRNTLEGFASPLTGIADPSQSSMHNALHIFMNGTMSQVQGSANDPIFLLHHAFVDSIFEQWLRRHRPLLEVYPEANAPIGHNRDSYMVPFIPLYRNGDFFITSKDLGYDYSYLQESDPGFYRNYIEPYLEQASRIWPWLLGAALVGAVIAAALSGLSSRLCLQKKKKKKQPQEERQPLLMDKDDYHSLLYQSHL
Description: (§1) Cell Culture. The cell line B16 (mouse melanocytes, obtained from ATCC and part of SimDerma platform) was maintained in supplemented DMEM medium containing 10% FBS and 1% antibiotics penicillin/streptomycin (DMEM complete medium) at 37° C. in a humidified atmosphere of 5% CO2.
Measurements of Tyrosinase Activity: To measure the tyrosinase activity of the cells, B16 cells were treated for 3 days with several doses of the compounds (cannabigerol (1) or kojic acid), then lysed by incubation at 4° C. for 30 min in lysis buffer (20 mM sodium phosphate, pH 6.8, 1% Triton X-100, 1 mM PMSF, 1 mM EDTA) containing protease inhibitors cocktail. The lysates were centrifuged at 15.000 g for 10 min to obtain the supernatant as the source of tyrosinase. The reaction mixture contained 20 mM phosphate buffer, pH 6.8, 1.25 mM L-dopa (Sigma-Aldrich). After incubation at 37° C. for 30 min, dopachrome formation was monitored by measuring absorbance at a wavelength of 475 nm in a microplate reader (TriStar LB 941 Berthold Technologies, GmbH & Co. KG). Kojic acid was used as a positive control.

[2] = test system: B16 cells; format: cell-based, mouse
Description: (§2) Determination of Melanin Content and Cytotoxicity in B16 cells: To analyse the effect of cannabigerol (1) on melanogenesis, B16 melanoma cells were used as a cellular assay system to evaluate the depigmenting activity in cell cultures. B16 cells (4A5) were treated for 3 days with several doses of the compounds (cannabigerol (1) or kojic acid). The cells were washed with phosphate buffer saline (PBS) at the end of the treatment and dissolved in 1 N NaOH containing 10% DMSO for 1 h at 60° C. The absorbance at 405/490 nm was measured (TriStar LB 941 Berthold Technologies, GmbH & Co. KG) and the melanin content quantified with a reference standard of synthetic melanin (Sigma-Aldrich, St Louis, Mo., USA). Cytotoxicity was measured in parallel by the MTT assay to discard that melanin inhibition is not masked by cytotoxicity. Kojic acid was used as a positive control.

[3] = test system: B16 melanoma cells; experiment: Determination of melanin content in B16 cells; format: cell-based, mouse
Description: as §1, §2

SMILES	inhibition of tyrosinase compared with positive control ([1]; 1 μg/ml cannabigerol vs 2 mM kojic acid, B16 cells, 3 days)	doses at which tyrosinase activity was inhibited ([1]; B16 cells treated for 3 days) [µg/mL]	inhibition compared with reference inhibitor in the used test systems (tyrosinase activity, melanin production; FIG. 2 and 3) ([1]; B16 melanocytes)	cytotoxic effects [2]	melanin production, dose dependence [3]	inhibition at 1 µg/mL ([3]; Mus musculus, B16, 72 h, read-out: inhibition of melanin production) [%]	reduction of melanin production ([3]; 2 mM, B16 cells, 3 days)
CCCCCc1cc(O)c(C/C=C(\C)CCC=C(C)C)c(O)c1 [Cannabigerol (1), Cannabigerol]	as potent as the effect of 2 mM of kojic acid	≥ 0.5	stronger inhibition than the used reference inhibitor kojic acid	no cytotoxic effects	dose dependently prevented	~30	–
O=c1cc(CO)occ1O [kojic acid, reference compound]	–	–	–	–	–	–	approx. 20%
